According to PubChem BioAssay AID248 (DTP/NCI, 2004):
“And” between values parts separate entries of the source, which are not always exact repeats. Identical values can stand only once. Inconclusive results and toxic doses are left out. Rule as the data show it: active = T/C of 150% or more; inactive = T/C below 125%.

Tested on: L1210 leukemia ip in BDF1 mice, survival T/C
Assay: NCI In Vivo Anticancer Drug Screen. Data for tumor model L1210 Leukemia (intraperitoneal) in B6D2F1 (BDF1) mice
Conditions: endpoint: mean survival time, higher = longer survival
Procedure, shortened: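 Read-out is survival time, reported as the treated-group measurement over the vehicle-control measurement.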

[1] = dose: 100.0 mg/kg/injection, schedule: Q01DX001 (ip), vehicle: other
[2] = dose: 200.0 mg/kg/injection, schedule: Q01DX001 (ip), vehicle: other
[3] = dose: 100.0 mg/kg/injection, schedule: Q01DX009 (ip), vehicle: Klucel (hydroxypropylcellulose) (HPC)
[4] = dose: 100.0 mg/kg/injection, schedule: Q04DX003 (ip), vehicle: Klucel (hydroxypropylcellulose) (HPC)
[5] = dose: 200.0 mg/kg/injection, schedule: Q01DX009 (ip), vehicle: Klucel (hydroxypropylcellulose) (HPC)
[6] = dose: 200.0 mg/kg/injection, schedule: Q04DX003 (ip), vehicle: Klucel (hydroxypropylcellulose) (HPC)
[7] = dose: 400.0 mg/kg/injection, schedule: Q04DX003 (ip), vehicle: Klucel (hydroxypropylcellulose) (HPC)
[8] = dose: 100.0 mg/kg/injection, schedule: Q01DX001 (ip), vehicle: saline with Tween-80
[9] = dose: 100.0 mg/kg/injection, schedule: Q01DX009 (ip), vehicle: saline with Tween-80
[10] = dose: 100.0 mg/kg/injection, schedule: Q04DX002 (ip), vehicle: saline with Tween-80
[11] = dose: 100.0 mg/kg/injection, schedule: Q04DX003 (ip), vehicle: saline with Tween-80
[12] = dose: 200.0 mg/kg/injection, schedule: Q01DX001 (ip), vehicle: saline with Tween-80
[13] = dose: 200.0 mg/kg/injection, schedule: Q01DX009 (ip), vehicle: saline with Tween-80
[14] = dose: 200.0 mg/kg/injection, schedule: Q04DX002 (ip), vehicle: saline with Tween-80
[15] = dose: 200.0 mg/kg/injection, schedule: Q04DX003 (ip), vehicle: saline with Tween-80
[16] = dose: 400.0 mg/kg/injection, schedule: Q01DX001 (ip), vehicle: saline with Tween-80
[17] = dose: 400.0 mg/kg/injection, schedule: Q01DX009 (ip), vehicle: saline with Tween-80
[18] = dose: 400.0 mg/kg/injection, schedule: Q04DX002 (ip), vehicle: saline with Tween-80
[19] = dose: 50.0 mg/kg/injection, schedule: Q01DX001 (ip), vehicle: saline
[20] = dose: 100.0 mg/kg/injection, schedule: Q01DX001 (ip), vehicle: saline
[21] = dose: 200.0 mg/kg/injection, schedule: Q01DX001 (ip), vehicle: saline
[22] = dose: 25.0 mg/kg/injection, schedule: Q01DX009 (ip), vehicle: saline
[23] = dose: 50.0 mg/kg/injection, schedule: Q01DX009 (ip), vehicle: saline
[24] = dose: 100.0 mg/kg/injection, schedule: Q01DX009 (ip), vehicle: saline
[25] = dose: 100.0 mg/kg/injection, schedule: Q01DX001 (ip), vehicle: carboxymethylcellulose (CMC)
[26] = dose: 200.0 mg/kg/injection, schedule: Q01DX001 (ip), vehicle: carboxymethylcellulose (CMC)
[27] = dose: 400.0 mg/kg/injection, schedule: Q01DX001 (ip), vehicle: carboxymethylcellulose (CMC)

Measured: T/C

CCCCN(C)N=Nc1cn(C2OC(CO)C(O)C2O)c(=O)[nH]c1=O (stereo not given)
inactive: dose: 100.0 mg/kg/injection, schedule: Q01DX009 (ip), vehicle: water 112 % of control | dose: 100.0 mg/kg/injection, schedule: Q04DX003 (ip), vehicle: water 96 % of control | dose: 200.0 mg/kg/injection, schedule: Q01DX009 (ip), vehicle: water 106 % of control | dose: 200.0 mg/kg/injection, schedule: Q04DX003 (ip), vehicle: water 102 % of control | dose: 400.0 mg/kg/injection, schedule: Q01DX009 (ip), vehicle: water 117 % of control | dose: 400.0 mg/kg/injection, schedule: Q04DX003 (ip), vehicle: water 107 % of control

CCCCOP(=O)(Cc1ccc(Cl)c(Cl)c1)OCCCC
inactive: dose: 100.0 mg/kg/injection, schedule: Q04DX002 (sc), vehicle: olive oil, sesame oil, peanut oil 98 % of control | dose: 200.0 mg/kg/injection, schedule: Q04DX002 (sc), vehicle: olive oil, sesame oil, peanut oil 102 % of control | dose: 400.0 mg/kg/injection, schedule: Q04DX002 (sc), vehicle: olive oil, sesame oil, peanut oil 98 % of control

Cn1c(=O)c2[nH]c(CS(=O)(=O)Cc3nc4c([nH]3)c(=O)n(C)c(=O)n4C)nc2n(C)c1=O
inactive: dose: 50.0 mg/kg/injection, schedule: Q01DX001 (ip), vehicle: other 90 % of control | [1] 101 % of control | [2] 95 % of control | dose: 400.0 mg/kg/injection, schedule: Q01DX001 (ip), vehicle: other 92 % of control

Cc1ccc(NC(=O)c2c(Cl)c(Cl)c(Cl)c(Cl)c2C(=O)O)cc1Cl
inactive: [3] 100 % of control | [4] 103 % of control | [5] 98 % of control | [6] 102 % of control | [7] 96 % of control

Cc1cc(C)c(NC(=S)NC(=O)C(C)Oc2ccccc2)c(C)c1 (stereo not given)
inactive: [8] 97 % of control | [9] 96 % of control and 100 % of control | [10] 101 % of control and 104 % of control | [11] 93 % of control | [12] 97 % of control | [13] 97 % of control and 92 % of control | [14] 97 % of control and 110 % of control | [15] 93 % of control | [16] 103 % of control | [17] 102 % of control | [18] 93 % of control and 121 % of control | dose: 400.0 mg/kg/injection, schedule: Q04DX003 (ip), vehicle: saline with Tween-80 93 % of control

NNc1ncccc1[N+](=O)[O-]
inactive: [19] 102 % of control | [20] 108 % of control | [21] 96 % of control

CC(=O)OC1C=CCC2C(=O)c3cc4ccccc4cc3C(=O)C12 (stereo not given)
inactive: [1] 100 % of control | [2] 104 % of control

Nc1nc2c(ncn2-c2cccc3ccccc23)c(=O)[nH]1
inactive: dose: 25.0 mg/kg/injection, schedule: Q01DX001 (ip), vehicle: saline with Tween-80 93 % of control | dose: 50.0 mg/kg/injection, schedule: Q01DX001 (ip), vehicle: saline with Tween-80 119 % of control | [8] 93 % of control

CCCSc1nccc2n[nH]nc12
inactive: dose: 50.0 mg/kg/injection, schedule: Q01DX009 (ip), vehicle: saline with Tween-80 95 % of control | dose: 50.0 mg/kg/injection, schedule: Q04DX003 (ip), vehicle: saline with Tween-80 98 % of control | [8] 90 % of control | [9] 93 % of control | [11] 96 % of control | [12] 95 % of control | [13] 95 % of control | [15] 100 % of control

OCC1C2C=CC(C3C=CC32)C1CO (stereo not given)
inactive: dose: 100.0 mg/kg/injection, schedule: Q04DX002 (ip), vehicle: Klucel (hydroxypropylcellulose) (HPC) 98 % of control | dose: 200.0 mg/kg/injection, schedule: Q04DX002 (ip), vehicle: Klucel (hydroxypropylcellulose) (HPC) 98 % of control | dose: 400.0 mg/kg/injection, schedule: Q04DX002 (ip), vehicle: Klucel (hydroxypropylcellulose) (HPC) 113 % of control

CCOC(=O)CNC(=O)CNC(=O)CCCCSc1ncnc2nc[nH]c12
inactive: [22] 110 % of control | [23] 98 % of control | dose: 50.0 mg/kg/injection, schedule: Q01DX009 (oral), vehicle: saline 104 % of control | [24] 103 % of control | dose: 100.0 mg/kg/injection, schedule: Q01DX009 (oral), vehicle: saline 90 % of control | dose: 200.0 mg/kg/injection, schedule: Q01DX009 (ip), vehicle: saline 101 % of control | dose: 200.0 mg/kg/injection, schedule: Q01DX009 (oral), vehicle: saline 106 % of control | dose: 400.0 mg/kg/injection, schedule: Q01DX009 (ip), vehicle: saline 100 % of control | dose: 400.0 mg/kg/injection, schedule: Q01DX009 (oral), vehicle: saline 93 % of control | dose: 800.0 mg/kg/injection, schedule: Q01DX009 (ip), vehicle: saline 115 % of control | dose: 800.0 mg/kg/injection, schedule: Q01DX009 (oral), vehicle: saline 97 % of control

O=c1[nH][nH]c(Cc2ccccc2)c1-c1ccccc1
inactive: [4] 102 % of control | [6] 98 % of control | [7] 101 % of control

CCCCCCCCC1OCC(C)(C)C(C(C)C)O1 (stereo not given)
inactive: dose: 50.0 mg/kg/injection, schedule: Q01DX001 (ip), vehicle: carboxymethylcellulose (CMC) 102 % of control | [25] 104 % of control | [26] 107 % of control | [27] 104 % of control

O=C(/C=C/c1ccccc1)NC(=S)Nc1ccc(O)cc1
inactive: [8] 96 % of control | [9] 95 % of control and 107 % of control | [10] 111 % of control and 88 % of control | [12] 98 % of control | [13] 96 % of control and 92 % of control | [14] 95 % of control and 111 % of control | [16] 96 % of control | [17] 101 % of control | [18] 95 % of control

CC(=O)Nc1cccc(/C=C/c2nc(N)nc(N)c2-c2ccc(Cl)cc2)c1
inactive: [8] 98 % of control | [12] 87 % of control | [16] 90 % of control

C[N+](C)(C)CCCCCCCCCC[N+](C)(C)CCCCCCCCCC[N+](C)(C)CCCCCCCCCC[N+](C)(C)C
inactive: dose: 25.0 micrograms/kg/injection, schedule: Q04DX003 (ip), vehicle: Klucel (hydroxypropylcellulose) (HPC) 96 % of control | dose: 50.0 micrograms/kg/injection, schedule: Q04DX003 (ip), vehicle: Klucel (hydroxypropylcellulose) (HPC) 97 % of control | dose: 100.0 micrograms/kg/injection, schedule: Q04DX003 (ip), vehicle: Klucel (hydroxypropylcellulose) (HPC) 97 % of control

COc1ccc(C=Nc2cccc(O)c2)cc1
inactive: [25] 95 % of control | [26] 95 % of control | [27] 92 % of control

O=C(CCCC(=O)NNC(=S)Nc1cccc2ccccc12)NNC(=S)Nc1cccc2ccccc12
inactive: [19] 98 % of control | [20] 93 % of control | [21] 96 % of control | dose: 400.0 mg/kg/injection, schedule: Q01DX001 (ip), vehicle: saline 96 % of control

NC(CO)CSCc1ccccc1 (stereo not given)
inactive: dose: 6.25 mg/kg/injection, schedule: Q01DX009 (ip), vehicle: saline 105 % of control | dose: 12.5 mg/kg/injection, schedule: Q01DX009 (ip), vehicle: saline 100 % of control | [22] 110 % of control and 113 % of control | [23] 100 % of control and 102 % of control | [24] 104 % of control

Brc1ccccc1Nn1c2ccccc2c2ccccc21
inactive: [3] 103 % of control | [5] 95 % of control | dose: 400.0 mg/kg/injection, schedule: Q01DX009 (ip), vehicle: Klucel (hydroxypropylcellulose) (HPC) 103 % of control

CC(=O)NC1C(C)OC2COC(C)(C)OC2C1C (stereo not given)
inactive: [8] 100 % of control | [12] 100 % of control | [16] 104 % of control

COC(=O)C(CCSC)NC(=O)c1ccccc1 (stereo not given)
inactive: [9] 93 % of control | [13] 96 % of control

COc1cc(C(=O)O)cc(OC)c1OC(C)=O
inactive: [9] 104 % of control | [13] 98 % of control | [17] 88 % of control
